Key:
Haemonchus contortus L3 = test: microbe, parasite or virus in culture; type: cell-based; details: Haemonchus contortus, 96 h, read-out: HcL3 Minimal Effective Concentration (MEC)
D. immitis microfilariae = test: Dirofilaria immitis, microfilariae (DiMF) in vitro motility assay; type: cell-based; details: Dirofilaria immitis, 72 h, read-out: DiMF minimally effective dose (MEC)

SMILES | minimal effective concentration (Haemonchus contortus L3) | minimal effective concentration (D. immitis microfilariae)
O=C(NCc1ccnc(F)c1)n1c2c(c3cc(Br)ccc31)CN(C/C=C/c1ccc(Cl)c(F)c1)CC2 [Example 188, (E)-8-bromo-2-(3-(4-chloro-3-fluorophenyl)allyl)-N-((2-fluoropyridin-4-yl)methyl)-1,2,3,4-tetrahydro-5H-pyrido[4,3-b]indole-5-carboxamide] | 0.3 µM | 3.3 µM
O=C(NCc1ccnc(F)c1)n1c2c(c3c(F)cc(C(F)(F)F)cc31)CN(C/C=C/c1ccc(Cl)cc1)CC2 [Example 327, (E)-2-(3-(4-chlorophenyl)allyl)-9-fluoro-N-((2-fluoropyridin-4-yl)methyl)-7-(trifluoromethyl)-1,2,3,4-tetrahydro-5H-pyrido[4,3-b]indole-5-carboxamide] | > 100 µM | 10 µM
COc1ccc(/C=C/CN2CCc3c(c4ccc(Cl)cc4n3C(=O)NCc3ccnc(Cl)c3)C2)cc1 [Example 219, (E)-7-chloro-N-((2-chloropyridin-4-yl)methyl)-2-(3-(4-methoxyphenyl)allyl)-1,2,3,4-tetrahydro-5H-pyrido[4,3-b]indole-5-carboxamide] | 0.5 µM | 3.3 µM
N#Cc1ccc2c(c1)c1c(n2C(=O)NCc2ccnc(O)c2)CCN(C/C=C/c2cc(F)c(Cl)c(F)c2)C1 [Example 450, (E)-2-(3-(4-chloro-3,5-difluorophenyl)allyl)-8-cyano-N-((2-hydroxypyridin-4-yl)methyl)-1,2,3,4-tetrahydro-5H-pyrido[4,3-b]indole-5-carboxamide] | 0.5 µM | 100 µM
O=C(NCc1ccnc(Cl)c1)n1c2c(c3cc(Cl)ccc31)CN(Cc1ccc3cc(Cl)ccc3n1)CC2 [Example 247, 8-chloro-N-((2-chloropyridin-4-yl)methyl)-2-((6-chloroquinolin-2-yl)methyl)-1,2,3,4-tetrahydro-5H-pyrido[4,3-b]indole-5-carboxamide] | 1 µM | 1.8 µM
O=C(NCc1ccnc(Cl)c1)n1c2c(c3cc(OC(F)(F)F)ccc31)CN(C/C=C/c1ccc(Cl)c(F)c1)CC2 [Example 384, (E)-2-(3-(4-chloro-3-fluorophenyl)allyl)-N-((2-chloropyridin-4-yl)methyl)-8-(trifluoromethoxy)-1,2,3,4-tetrahydro-5H-pyrido[4,3-b]indole-5-carboxamide] | 1 µM | 18.2 µM
O=C(NCc1ccnc(Cl)c1)n1c2c(c3cc(C(F)(F)F)ccc31)CN(C/C=C/c1ccc(Cl)c(Cl)c1)CC2 [Example 333, (E)-N-((2-chloropyridin-4-yl)methyl)-2-(3-(3,4-dichlorophenyl)allyl)-8-(trifluoromethyl)-1,2,3,4-tetrahydro-5H-pyrido[4,3-b]indole-5-carboxamide] | 1.8 µM | > 100 µM
N#Cc1ccc2c(c1)c1c(n2C(=O)NCc2ccnc(Cl)c2)CCN(C/C=C/c2ccc(Cl)c(Br)c2)C1 [Example 97, (E)-2-(3-(3-bromo-4-chlorophenyl)allyl)-N-((2-chloropyridin-4-yl)methyl)-8-cyano-1,2,3,4-tetrahydro-5H-pyrido[4,3-b]indole-5-carboxamide] | 0.3 µM | > 100 µM
O=C(NCc1ccnc(Cl)c1)n1c2c(c3cc(C(F)(F)F)ccc31)CN(C/C=C/c1ccc(F)c(F)c1)CC2 [Example 414, (E)-N-((2-chloropyridin-4-yl)methyl)-2-(3-(3,4-difluorophenyl)allyl)-8-(trifluoromethyl)-1,2,3,4-tetrahydro-5H-pyrido[4,3-b]indole-5-carboxamide] | 1 µM | 10 µM
O=C(NCc1ccnc(F)c1)n1c2c(c3cc(Cl)ccc31)CN(C/C=C/c1ccc(F)c(F)c1)CC2 [Example 259, (E)-8-chloro-2-(3-(3,4-difluorophenyl)allyl)-N-((2-fluoropyridin-4-yl)methyl)-1,2,3,4-tetrahydro-5H-pyrido[4,3-b]indole-5-carboxamide] | 0.1 µM | 3.3 µM

Reference: US10570129B2 (Zoetis Services LLC, priority 2015, dated 2020)
